From ChEMBL document CHEMBL5316298, “Discovery of Amphiphilic Xanthohumol Derivatives as Membrane-Targeting Antimicrobials against Methicillin-Resistant Staphylococcus aureus” (J Med Chem, 2023)
Calls of active or inactive are those of the source. The rule behind the calls is not given here.

Columns and labels:
[1] = Toxicity in KM mouse infected with methicillin-resistant Staphylococcus aureus 3 assessed as heart damage at 5 to 10 mg/kg administered into skin infection site measured after 24 hrs by H and E staining based analysis; type: organism-based; details: in vivo, topical_or_ocular, dose 5-10 mg/kg
Cell membrane [2] = test: Disruption of membrane integrity in methicillin-resistant Staphylococcus aureus 3 assessed as increase in red fluorescence at 8 times MIC incubated for 4 hrs by DAPI/PI staining based laser confocal microscopic analysis; type: subcellular
Staphylococcus aureus [3] = test: Induction of drug resistance in Staphylococcus aureus ATCC 29213 assessed as increase in MIC at 0.5 times MIC measured for 20 passages; type: functional
[4] = Toxicity in KM mouse infected with methicillin-resistant Staphylococcus aureus 3 assessed as lung damage at 5 to 10 mg/kg administered into skin infection site measured after 24 hrs by H and E staining based analysis; type: organism-based; details: in vivo, topical_or_ocular, dose 5-10 mg/kg
[5] = Toxicity in KM mouse assessed as effect on albumin level at 20 mg/kg, sc administered into middle dorsum and measured after 24 hrs by routine blood test; type: organism-based; details: in vivo
Staphylococcus aureus [6] = test: Antibacterial activity against methicillin-resistant Staphylococcus aureus 3 infected in KM mouse assessed as reduction in bacterial load at infection site at 5 mg/kg administered into skin infection site measured after 24 hrs relative to control; type: functional; set-up: scale not given: the % may be the effect or the level left
Cell membrane [7] = test: Induction of membrane depolarization in methicillin-resistant Staphylococcus aureus 3 assessed as fold increase in fluorescence intensity at 8 to 16 ug/ml measured after 20 mins by DiSC35 dye-based fluorescence assay relative to control; type: subcellular; details: dose 8-16 µg/ml
[8] = Toxicity in KM mouse assessed as pathological changes in lungs at 20 mg/kg, sc administered into middle dorsum and measured after 24 hrs by H and E staining based analysis; type: organism-based; details: in vivo
Cell membrane [9] = test: Induction of membrane depolarization in methicillin-resistant Staphylococcus aureus 3 assessed as increase in fluorescence intensity measured every 2 mins for 20 mins by SYTOX-green dye based fluorescence assay; type: subcellular; details: dose 8-32 µg/ml
[10] = Toxicity in KM mouse infected with methicillin-resistant Staphylococcus aureus 3 assessed as histopathological abnormalities in heart at 5 to 10 mg/kg administered into skin infection site measured after 24 hrs by H and E staining based analysis; type: organism-based; details: in vivo, topical_or_ocular, dose 5-10 mg/kg
[11] = Toxicity in KM mouse infected with methicillin-resistant Staphylococcus aureus 3 assessed as kidney damage at 5 to 10 mg/kg administered into skin infection site measured after 24 hrs by H and E staining based analysis; type: organism-based; details: in vivo, topical_or_ocular, dose 5-10 mg/kg
[12] = Toxicity in KM mouse assessed as effect on RBC count at 20 mg/kg, sc administered into middle dorsum and measured after 24 hrs by routine blood test; type: organism-based, Erythrocyte; details: in vivo
Staphylococcus aureus [13] = test: Antibacterial activity against methicillin-resistant Staphylococcus aureus 3 infected in KM mouse assessed as reduction in bacterial load at infection site by measuring colony forming units at 10 mg/kg administered into skin infection site measured after 24 hrs; type: functional
[14] = Toxicity in KM mouse assessed as effect on mean corpuscular volume at 20 mg/kg, sc administered into middle dorsum and measured after 24 hrs by routine blood test; type: organism-based; details: in vivo
[15] = Toxicity in KM mouse assessed as pathological changes in kidneys at 20 mg/kg, sc administered into middle dorsum and measured after 24 hrs by H and E staining based analysis; type: organism-based; details: in vivo
Staphylococcus aureus [16] = test: Bactericidal activity against Staphylococcus aureus ATCC 29213 at 8 times MIC measured at 1 hr by time kill assay; type: functional, organism-based
Staphylococcus aureus [17] = test: Antibacterial activity against methicillin-resistant Staphylococcus aureus clinical isolate 4 incubated for 16 to 18 hrs by CLSI-based microbroth dilution method; type: functional; details: time 16-18 hrs
Staphylococcus aureus [18] = test: Antibacterial activity against methicillin-resistant Staphylococcus aureus 3 infected in KM mouse assessed as appearance of smoother dorsal skin at 10 mg/kg administered into skin infection site measured after 24 hrs; type: functional, organism-based
Staphylococcus aureus [19] = test: Anti-MRSA activity against methicillin-resistant Staphylococcus aureus 3 incubated for 16 to 18 hrs in presence of 0 to 32 ug/ml phosphatidylglycerol by checkerboard broth dilution method; type: functional; details: time 16-18 hrs
Staphylococcus aureus [20] = test: Antibacterial activity against methicillin-resistant Staphylococcus aureus clinical isolate 7 incubated for 16 to 18 hrs by CLSI-based microbroth dilution method; type: functional; details: time 16-18 hrs
[21] = Toxicity in KM mouse assessed as swelling in skin at 40 to 80 mg/kg, sc administered into middle dorsum and measured after 24 hrs; type: organism-based; details: in vivo, dose 40-80 mg/kg
Staphylococcus aureus [22] = test: Antibacterial activity against methicillin-resistant Staphylococcus aureus 3 infected in KM mouse assessed as reduction in abscesses inside the skin at 5 mg/kg administered into skin infection site measured after 24 hrs; type: functional, organism-based
Staphylococcus aureus [23] = test: Antibacterial activity against methicillin-resistant Staphylococcus aureus 3 infected in KM mouse assessed as reduction in inflammatory cells in subcutaneous tissue at 5 to 10 mg/kg administered into skin infection site measured after 24 hrs by H and E staining based analysis; type: functional, organism-based; details: dose 5-10 mg/kg
Staphylococcus aureus [24] = test: Antibacterial activity against methicillin-resistant Staphylococcus aureus clinical isolate 9 incubated for 16 to 18 hrs by CLSI-based microbroth dilution method; type: functional; details: time 16-18 hrs
[25] = Toxicity in KM mouse assessed as effect on hematocrit level at 20 mg/kg, sc administered into middle dorsum and measured after 24 hrs by routine blood test; type: organism-based; details: in vivo
Cell membrane [26] = test: Disruption of membrane integrity in methicillin-resistant Staphylococcus aureus 3 assessed as appearance of ruptured cell surface at 16 ug/ml incubated for 240 mins by SEM analysis; type: subcellular; details: dose 16.0 µg/ml
[27] = Toxicity in KM mouse assessed as mortality at 5 to 80 mg/kg, sc administered into middle dorsum and measured after 24 hrs; type: organism-based; details: in vivo, dose 5-80 mg/kg
Cell membrane [28] = test: Disruption of membrane integrity in methicillin-resistant Staphylococcus aureus 3 assessed as appearance of uneven cell surface at 16 ug/ml incubated for 240 mins by SEM analysis; type: subcellular; details: dose 16.0 µg/ml
Staphylococcus aureus [29] = test: Antibacterial activity against methicillin-resistant Staphylococcus aureus clinical isolate 10 incubated for 16 to 18 hrs by CLSI-based microbroth dilution method; type: functional; details: time 16-18 hrs
Staphylococcus aureus [30] = test: Induction of ROS production in methicillin-resistant Staphylococcus aureus 3 assessed as increase in intracellular ROS level incubated for 40 mins by DCFH-DA dye based fluorescence analysis; type: functional, organism-based; details: dose 0-64 µg/ml
Staphylococcus aureus [31] = test: Bactericidal activity against methicillin-resistant Staphylococcus aureus 3 incubated for 6 hrs in presence of 50% sheep plasma; type: functional, organism-based
[32] = Toxicity in KM mouse infected with methicillin-resistant Staphylococcus aureus 3 assessed as vacuolar degeneration in the kidneys at 5 to 10 mg/kg administered into skin infection site measured after 24 hrs by H and E staining based analysis; type: organism-based; details: in vivo, topical_or_ocular, dose 5-10 mg/kg
Staphylococcus aureus [33] = test: Anti-MRSA activity against methicillin-resistant Staphylococcus aureus 3 incubated for 16 to 18 hrs in presence of 0 to 32 ug/ml cardiolipin by checkerboard broth dilution method; type: functional; details: time 16-18 hrs
Cell membrane [34] = test: Disruption of membrane integrity in methicillin-resistant Staphylococcus aureus 3 assessed as increase in red fluorescence of PI incubated for 2 hrs by SYTO 9/PI staining based flow cytometry analysis; type: subcellular; details: dose 4-64 µg/ml
[35] = Toxicity in KM mouse assessed as effect on WBC count at 20 mg/kg, sc administered into middle dorsum and measured after 24 hrs by routine blood test; type: organism-based; details: in vivo
Staphylococcus aureus [36] = test: Antibacterial activity against methicillin-resistant Staphylococcus aureus clinical isolate 2 incubated for 16 to 18 hrs by CLSI-based microbroth dilution method; type: functional; details: time 16-18 hrs

SMILES: CCCN(CCC)C(=O)C[N+](C)(C)CCCCOc1ccc(/C=C/C(=O)c2c(OC)cc3c(c2O)C=CC(C)(C)O3)cc1.[Br-]
- Activity [1]: Non-Toxic
- Activity (Cell membrane [2]): Active
- Activity (Staphylococcus aureus [3]): inactive
- Activity [4]: Non-Toxic
- Activity [5]: Non-Toxic
- Activity (Staphylococcus aureus [6]): 99.905%
- fold change (FC) (Cell membrane [7]): 6
- Activity [8]: Non-Toxic
- Activity (Cell membrane [9]): Dose-Dependent Effect
- Activity [10]: Non-Toxic
- Activity [11]: Non-Toxic
- Activity [12]: Non-Toxic
- Activity (Staphylococcus aureus [13]): 4.5 log10CFU/g
- Activity [14]: Non-Toxic
- Activity [15]: Non-Toxic
- Activity (Staphylococcus aureus [16]): Active
- MIC (Staphylococcus aureus [17]): 2 µg/mL
- Activity (Staphylococcus aureus [18]): Active
- MIC (Staphylococcus aureus [19]): 1 µg/mL
- MIC (Staphylococcus aureus [20]): 2 µg/mL
- Activity [21]: Toxic
- Activity (Staphylococcus aureus [22]): inactive
- Activity (Staphylococcus aureus [23]): Active
- MIC (Staphylococcus aureus [24]): 2 µg/mL
- Activity [25]: Non-Toxic
- Activity (Cell membrane [26]): Active
- Activity [27]: Non-Toxic
- Activity (Cell membrane [28]): Active
- MIC (Staphylococcus aureus [29]): 1 µg/mL
- Activity (Staphylococcus aureus [30]): Active
- Activity (Staphylococcus aureus [31]): Active
- Activity [32]: Non-Toxic
- MIC (Staphylococcus aureus [33]): 1 µg/mL
- Activity (Cell membrane [34]): Dose-Dependent Effect
- Activity [35]: Non-Toxic
- MIC (Staphylococcus aureus [36]): 2 µg/mL
